Patent US20040037806A1, “Aldosterone blocker therapy to prevent or treat inflammation-related disorders” (Pharmacia Corporation, priority 2002, published 2004)
Entries after “also recorded” stand apart in the source; their conditions may differ.

How the values were obtained:
Type in all cases: in vivo, rat
COX-2 = test: Assay C: COX-2 mRNA, TaqMan; conditions: 7, 14, 30 days; aldosterone+salt alone or with eplerenone 100 mg/kg/day
Experimental: (§1) The procedure of Assay B was expanded upon in a further study. […] Myocardial tissue from animals in each treatment group was examined after 7, 14, or 30 days of treatment.
(§2) Potassium chloride supplementation was added to the saline solution in order to prevent the potential hypokalemia associated with aldosterone excess.
(§3) Treatment At the time of the surgery, an Alzet 2002 osmotic minipump (Alza Corp., Palo Alto, Calif.) containing either vehicle (9% ethanol/87% propylene glycol/4% dH2O) or 1.0 mg/mL d-aldosterone (Sigma Chemical, St. Louis, Mo.) was inserted subcutaneously at the nape of the neck. Aldosterone was administered at a dose of 0.75 µg/hour. […]
(§4) The fluorogenic 5′-nuclease assay (TaqMan PCR) using Applied Biosystems' 7700 Sequence Detection System (Applied Biosystems, Foster City, Calif.) allowed for real time detection/quantitation of a specific gene by monitoring the increase in fluorescence of a gene-specific, dye-labeled oligonucleotide probe. […] When the probe was annealed to the target gene, fluorescence of 6FAM was prevented by the close proximity of TAMRA. The exonuclease activity of Taq polymerase released the dyes from the oligonucleotide probe by displacing the probe from the target sequence resulting in fluorescence excitation in direct proportion to the amount of target message present. […]

[1] = Assay A: angiotensin II infusion model, systolic blood pressure by tail-cuff; conditions: Wistar rats, 1% NaCl to drink, angiotensin II 25 ng/min sc, 4 weeks; eplerenone 100 mpk; aldosterone given to adrenalectomized, dexamethasone-treated rats
Collagen I = test: Assay C: Collagen I mRNA, TaqMan; conditions: 30 days, compared to vehicle+salt controls
Experimental: as §1, §2, §3, §4

osteopontin [2] = test: Assay C: Osteopontin mRNA, TaqMan; conditions: 7, 14, 30 days; aldosterone+salt alone or with eplerenone 100 mg/kg/day
Experimental: as §1, §2, §3, §4

osteopontin [3] = test: Assay B: osteopontin immunohistochemistry in the heart; conditions: aldosterone-infused, saline-drinking, uninephrectomized rats, eplerenone 100 mpk p.o, increased dietary potassium
Experimental: Assay B: In Vivo Aldosterone Infusion Model
Determination of osteopontin and COX-2 was performed by quantitative RT-PCR (Taqman). Osteopontin was also identified in the heart by immunohistochemistry.

[4] = system: Atrial natriuretic factor (ANP); test: Assay C: ANP mRNA in left ventricle, TaqMan; conditions: aldosterone+salt alone or with eplerenone 100 mg/kg/day; 7, 14, 30 days
Experimental: as §1, §2, §3, §4

[5] = system: Transforming growth factor beta 1 (TGFβ1); test: Assay C: TGFβ1 mRNA, TaqMan; conditions: aldosterone+salt, 7, 14, 30 days
Experimental: as §1, §2, §3, §4

Structure (SMILES)	COX-2 mRNA expression in myocardium (COX-2)	Systolic blood pressure [1]	Collagen type-I message (Collagen I)	Osteopontin mRNA expression in myocardium (osteopontin [2])	Osteopontin expression in the heart (immunostaining) (osteopontin [3])	Osteopontin expression in the heart (immunostaining) (osteopontin [3]; listed as Eplerenone)	Atrial natiuretic peptide (ANP) mRNA levels [4]	TGF-β mRNA levels [5]
COC(=O)[C@@H]1CC2=CC(=O)CC[C@]2(C)[C@@]23O[C@@H]2C[C@@]2(C)[C@@H](CC[C@@]24CCC(=O)O4)[C@H]13 [eplerenone]	inhibition of early time-course expression of myocardial COX-2; also recorded: significantly reduced	Neither eplerenone nor adrenalectomy reduced blood pressure	modest increase	significantly reduced; also recorded: inhibition of early time-course expression of myocardial osteopontin	prevention by eplerenone of induction of osteopontin expression; also recorded: prevention by eplerenone of osteopontin upregulation	prevented the expression of osteopontin	significantly reduced by eplerenone after 30 days of treatment but not after 14 days	–
C[C@]12CCC(=O)C=C1CC[C@@H]1[C@@H]2[C@@H](O)C[C@]2(C=O)[C@@H](C(=O)CO)CC[C@@H]12 [aldosterone]	significantly increased	increased blood pressure	modest increase	markedly upregulated	clearly identified in the media of coronary arteries	–	Significant elevations	not upregulated at any of the time points examined
